Assays:
[1] = target: T1, human tryptophan 2,3-dioxygenase (hTDO) (Homo sapiens, UniProt P48775); assay: In-vitro human tryptophan 2,3-dioxygenase (TDO) enzyme assay; type: biochemical; settings: for inhibition at 1 µM: hTDO enzyme at 1.0 μM concentration; for inhibition at 10 µM: hTDO enzyme at 10.0 μM concentration
T1 construct: His tag (N); purchased BPS Bioscience, San Diego, Calif., USA; host or cells: E. coli
In short: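 N-His-tagged hTDO expressed in E. coli (125 ng) incubated with 200 μM L-tryptophan, 100 mM sodium phosphate pH 7.0, 0.01% Tween-20, 100 μM ascorbate, 60 min at 37 °C. Product converted with 200 mM piperidine (65 °C, 20 min) to NFK-PIP, fluorescence 400/500 nm; IC50 by nonlinear regression.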

[2] = target: T2, human indoleamine 2,3-dioxygenase 1 (hIDO1) (Homo sapiens, UniProt P14902); assay: In-vitro human indoleamine 2,3-dioxygenase 1 (IDO1) enzyme assay; type: biochemical; settings: for inhibition at 1 µM: hIDO1 enzyme at 1.0 μM concentration; for inhibition at 10 µM: hIDO1 enzyme at 10.0 μM concentration; for IC50: hIDO1 enzyme
T2 construct: His tag (N); purchased BPS Bioscience, San Diego, Calif., USA; host or cells: E. coli
T2 sequence (P14902 whole entry): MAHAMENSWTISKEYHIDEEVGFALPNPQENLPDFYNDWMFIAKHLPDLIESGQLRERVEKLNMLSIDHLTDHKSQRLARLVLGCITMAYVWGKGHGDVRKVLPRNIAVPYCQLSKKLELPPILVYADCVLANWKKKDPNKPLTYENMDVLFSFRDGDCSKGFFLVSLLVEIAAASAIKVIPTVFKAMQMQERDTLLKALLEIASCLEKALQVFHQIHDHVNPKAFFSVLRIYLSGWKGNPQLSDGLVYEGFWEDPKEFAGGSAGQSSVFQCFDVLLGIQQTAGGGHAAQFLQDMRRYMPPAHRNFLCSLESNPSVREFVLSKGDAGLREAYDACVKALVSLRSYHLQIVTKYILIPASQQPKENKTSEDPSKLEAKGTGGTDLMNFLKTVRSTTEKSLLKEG
In short: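 His-tagged hIDO1 (E. coli, 50 ng) incubated with 80 μM tryptophan, 10 mM ascorbate, 10 μM methylene blue, catalase and 0.01% Tween-20 in 50 mM sodium phosphate pH 6.5, 60 min, 37 °C. Piperidine converts N-formylkynurenine to fluorescent NFK-PIP (ex 400/em 500 nm); IC50 by nonlinear regression.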

T1 sequence (P48775 whole entry): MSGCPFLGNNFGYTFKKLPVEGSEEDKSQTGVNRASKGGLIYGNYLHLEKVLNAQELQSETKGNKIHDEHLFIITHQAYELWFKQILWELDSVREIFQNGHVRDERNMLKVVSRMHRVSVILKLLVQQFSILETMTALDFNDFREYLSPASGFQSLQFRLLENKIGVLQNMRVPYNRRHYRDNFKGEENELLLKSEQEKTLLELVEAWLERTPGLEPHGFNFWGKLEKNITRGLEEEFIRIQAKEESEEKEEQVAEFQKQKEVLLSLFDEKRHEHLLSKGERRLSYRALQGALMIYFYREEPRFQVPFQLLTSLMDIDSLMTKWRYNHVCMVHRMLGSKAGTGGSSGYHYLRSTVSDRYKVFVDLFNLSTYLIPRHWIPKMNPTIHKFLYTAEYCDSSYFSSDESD

| inhibition at 1 µM [1] [%] | inhibition at 1 µM [2] [%] | inhibition at 10 µM [2] [%] | IC50 [2] [nM] | inhibition at 10 µM [1] [%] | SMILES |
| --- | --- | --- | --- | --- | --- |
| ≤ 50 | ≤ 50 | ≤ 50 | – | – | O=C(CC1C(c2ccccc2)=C(c2ccccc2)c2cncn21)C1CCCCC1 (centres unmarked) [Example 102] |
| ≥ 50 | ≥ 50 | ≥ 50 | > 500 | – | CC1=C(c2ccccc2)C(CC(=O)c2ccc(Oc3ccccc3)cc2)n2cncc21 (centres unmarked) [Example 48, 2-(7-methyl-6-phenyl-5H-pyrrolo[1,2-c]imidazol-5-yl)-1-(4-phenoxyphenyl)ethan-1-one] |
| – | ≤ 50 | ≥ 50 | – | ≥ 50 | COc1cccc(C(=O)CC2C(c3ccccc3)=C(C)c3cncn32)c1 (centres unmarked) [Example 33, 1-(3-Methoxy-phenyl)-2-(7-methyl-6-phenyl-5H-pyrrolo[1,2-c]imidazol-5-yl)-ethanone] |
| ≥ 50 | ≤ 50 | ≥ 50 | > 500 | ≥ 50 | CCCCC(O)CC1C(c2ccccc2)=C(C)c2cncn21 (centres unmarked) [Example 170, 1-(7-Methyl-6-phenyl-5H-pyrrolo[1,2-c]imidazole-5-yl)-hexan-2-ol] |
| ≤ 50 | ≤ 50 | ≤ 50 | – | – | CC1=C(c2ccccc2)C(CC(O)C2CCN(C(=O)c3ccccn3)CC2)n2cncc21 (single isomer, unassigned) [Example 160] |
| – | – | ≤ 50 | – | ≥ 50 | O=C(CC1C2=C(CCCC2)c2cncn21)c1cc(F)ccc1F (centres unmarked) [Example 9] |
| – | – | ≤ 50 | – | ≥ 50 | O=C(CC1C2=C(CCCC2)c2cncn21)c1ccccc1 (centres unmarked) [Example 1, 1-Phenyl-2-(6,7,8,9-tetrahydro-5H-imidazo[5,1-a]isoindol-5-yl)-ethanone] |
| ≤ 50 | ≥ 50 | ≥ 50 | < 500 | – | CC1=C(c2ccccc2)C(CC(O)C2CCN(C(=O)Nc3cccc(C)n3)CC2)n2cncc21 (centres unmarked) [Example 183] |
| ≤ 50 | ≤ 50 | ≤ 50 | – | – | COc1ccc(C2=C(C)c3cncn3C2CC(=O)C2CCCCC2)cc1 (centres unmarked) [Example 104] |
| ≥ 50 | ≥ 50 | ≥ 50 | – | ≥ 50 | CC1=C(c2ccccc2)C(CC(=O)c2cc(F)ccc2F)n2cncc21 (centres unmarked) [Example 36, 1-(2,5-difluorophenyl)-2-(7-methyl-6-phenyl-5H-pyrrolo[1,2-c]imidazol-5-yl)ethan-1-one] |
| – | – | ≥ 50 | > 500 | ≥ 50 | CC1=C(c2ccccc2)C(CC(=O)c2ccccc2)n2cncc21 (centres unmarked) [Example 11, 2-(7-Methyl-6-phenyl-5H-pyrrolo[1,2-c]imidazol-5-yl)-1-phenyl-ethanone] |
| ≥ 50 | ≥ 50 | ≥ 50 | < 500 | – | CC1=C(c2ccccc2)C(C[C@H](O)C2CCC(C(=O)OC(C)(C)C)CC2)n2cncc21 (stereo in doubt) [Example 185] |
| ≥ 50 | ≤ 50 | ≥ 50 | – | – | CC1=C(c2ccccc2)C(CC(=O)C2CCC(C(=O)Nc3ccccc3)CC2)n2cncc21 (centres unmarked) [Example 109, 4-(2-(7-methyl-6-phenyl-5H-pyrrolo[1,2-c]imidazol-5-yl)acetyl)-N-phenylcyclohexane-1-carboxamide] |
| – | ≤ 50 | ≥ 50 | – | ≥ 50 | CCOC(=O)CC1C(c2ccccc2)=C(C)c2cncn21 (centres unmarked) [Example 22] |
| ≥ 50 | ≥ 50 | ≥ 50 | – | – | CC1=C(c2ccccc2)C(CC(=O)c2cccc(Br)c2)n2cncc21 (centres unmarked) [Example 68, 1-(3-Bromo-phenyl)-2-(7-methyl-6-phenyl-5H-pyrrolo[1,2-c]imidazol-5-yl)-ethanone] |
| ≤ 50 | ≥ 50 | ≥ 50 | < 500 | – | CC1=C(c2ccccc2)C(CC(O)C2CCN(C(=O)Nc3ccc(F)c(Cl)c3)CC2)n2cncc21 (centres unmarked) [Example 182] |
